The numbers were not newly measured in US5574044A, “Muscarine antagonists” (Merck & Co., Inc., priority 1994, dated 1996), which cites them from elsewhere.

In one series the test system is eye. To be noted: in vivo.
The subject of another series is ciliary muscle. The following applies: in vivo.
The test system of another series is pupil. The following applies: in vivo.
The conditions of series [1]: in vivo.
The test system of series [2] is smooth muscle (M3 type) receptor. The following applies: ordinarily called M3 type but variously called type M2 or M3.

On to `CN1CCc2cccc3c2[C@H]1Cc1ccc(O)c(O)c1-3` [apomorphine], for which the “axial elongation / enlargement of the eye” value in the series on eye is “inhibit or actually prevent the axial enlargement of the eye”.
Consider `CN1[C@@H]2CC[C@H]1C[C@@H](OC(=O)C(CO)c1ccccc1)C2` (stereo partly drawn) [atropine], for which the “action on the ciliary muscle / ocular focusing” value in the series with ciliary muscle is “its action on the ciliary muscle to inhibit ocular focusing impairs near visual work like reading”. In the series on muscarinic receptors, the “muscarinic selectivity and duration” value was “long-acting non-specific antimuscarinic agent”. Also, the pupil dilation entry with pupil was “causes mydriases (increase of pupil size)”. Further, the sensitization assays entry in series [1] is reported as “test positive in sensitization assays”.
For the compound `C[N+]1(C)CCC(OC(=O)C(c2ccccc2)c2ccccc2)CC1` [Example 4-DAMP, 4-diphenylacetoxy-N-methylpiperadine methiodide], the “selectivity for smooth muscle (M3 type) receptor” value in series [2] is given as “relatively selective antagonist for smooth muscle”.
Regarding `CN1CCN(CC(=O)N2c3ccccc3C(=O)Nc3cccnc32)CC1` [pirenzepine], the “axial elongation / enlargement of the eye” value with eye is on record as “inhibits axial elongation”. For the same compound, the pupil dilation entry with pupil is on record as “far less effective at pupil dilation than atropine”. In series [1], the sensitization assays result is “test positive in sensitization assays”.
